The record followed here is patent publication US9347942B2, “Ultrasensitive cell based sensors and uses thereof” (CANVAX BIOTECH SL, priority 2010, dated 2016).

Assay [1] concerns the target T1, CHRM2 (Homo sapiens, UniProt P08172).
T1 construct: the entire human GPCR; mouse immunoglobulin kappa signal peptide (N); expressed in transfected cells
T1 sequence (P08172 2-466): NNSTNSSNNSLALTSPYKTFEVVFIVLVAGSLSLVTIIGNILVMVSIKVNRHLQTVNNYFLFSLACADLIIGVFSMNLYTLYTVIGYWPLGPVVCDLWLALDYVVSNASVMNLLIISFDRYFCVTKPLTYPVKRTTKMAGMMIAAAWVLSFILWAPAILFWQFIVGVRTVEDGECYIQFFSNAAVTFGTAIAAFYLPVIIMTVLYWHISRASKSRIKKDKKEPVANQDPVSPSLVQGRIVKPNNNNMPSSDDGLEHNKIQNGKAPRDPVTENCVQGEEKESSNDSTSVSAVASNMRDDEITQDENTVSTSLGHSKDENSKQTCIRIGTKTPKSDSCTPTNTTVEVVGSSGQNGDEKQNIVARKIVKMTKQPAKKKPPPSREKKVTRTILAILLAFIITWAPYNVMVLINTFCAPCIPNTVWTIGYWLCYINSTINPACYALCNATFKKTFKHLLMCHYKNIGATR
As to the kind of experiment: Number of steps needed, 384 well mix and read assay (Example 13). The format is cell-based. To be noted: carbachol 10 uM, 5.000 cells, only 15 uL of medium aspirated, 30 minutes. An excerpt:
This experiment was designed to test how many steps are needed for an assay with the cell based sensor, in particular if a washing step is needed before assay. As the RBL-2H3 is an adherent cell line at least one step of aspiration of cell culture medium is needed. If all cell culture medium is aspirated then cells should become dry and eventually die in particular if there is a time interval between aspiration and addition of compounds to test for exocytosis. For this reason an additional treatment was included were not all cell culture medium is aspirated. But if not all the cell culture medium is aspirated then some of the reporter secreted by cells after overnight culture contributes to basal exocytosis. CHRM2 and granzyme B expressing cells from example #12 were used in this experiment but cells were seeded 16 hours before experiment at 5.000 cells per well of a 384 well plate with black walls in 20 uL of culture medium. Before experiment three treatments were made: (1) discarding all the 20 uL of medium without washing; (2) discarding only 15 uL of cell culture medium and (3) discarding only 15 uL of cell culture medium and washing of the cells using 75 uL of Hanks Balanced Salt Solution (HBSS) containing 0.1% BSA and aspiration of 75 uL of washing buffer. […] Plates were incubated at 37° C. in the fluorescence reader and read at 0, 15, 30, 45 and 60 minutes. […]

Assay [2] has as its target T1, CHRM2. Kind of assay: Agonist-induced exocytosis of granzyme B, sandwich ELISA (Example 9). To be noted: agonist 10 uM, 60 minutes. The format is cell-based. From the text:
Human granzyme B was selected as reporter, chimeric promoter of hCMV-MoLV5′LTR as promoter for reporter expression, RBL-2H3 as hemopoyetic cells with professional regulated exocytosis and several GPCRs as exocytosis modulators under the control of Moloney Leukaemia virus 5′-LTR (MoMLV5′LTR, SEQ ID NO:3) as promoter for expression of exocytosis modulators. […] Vectors for expression of granzyme B had the chimeric promoter of hCMV-MoLV5′LTR-GranzymeB-IRES-NGFR with hygromycin resistance for stable transfections. Vectors for GPCR were electroporated first, cells were selected with neomycin at 500 ug/mL for about two weeks and cells were analysed by flow cytometry (Guava Technologies, USA) with anti-cmyc tag antibody (anti-cmyc-FITC, clone 9E10, Sigma-Aldrich, USA) for surface expression. Positive cells were separated by magnetic separation using anti-cmyc monoclonal antibody conjugated to biotin (Miltenyi Biotec, Germany) and streptavidin-MACS (Miltenyi Biotec, Germany). After growing positive fraction of cells was again analysed by flow cytometry with the anti-cmyc tag antibody. Positive cells were individually electroporated with the vector for expression human granzyme B using a microporator (Digital Bio Technology, South Korea) and after 48 hours hygromycin at 1500 ug/mL and neomycin at 500 ug/mL were added to culture for selection. After selection for about 2 weeks cells were analysed by flow cytometry (Guava Technologies, USA) with an antibody against NGFR coupled to FITC. Positive population where magnetically separated by MACS using anti-NGFR-MACS sup.R (Miltenyi Biotec, Germany). Sorted populations were again analysed again by flow cytometry to check both the expression of the GPCR with the anti-cmyc tag antibody and with anti-NGFR antibody to check granzyme B expression. […] GPCRs included were: SSTR2 and CHRM2 as alpha-i coupled GPCRs; AGTR1 and bradykinin type B1 receptor (BDKRB1) as alpha-q coupled GPCRs and AVPR2 as alpha-s coupled GPCR. […] Cells were seeded the night before experiment at 100.000 cells per well of a 96-well microplate in 100 uL of complete cell culture medium. Next day cells were washed with HBSS buffer and incubated with the ligand (agonist) at 10 uM of each GPCR in 30 uL of HBSS buffer at 37 Celsius degrees for 60 minutes and after centrifugation at 400 g for 5 minutes supernatants were analysed for human granzyme B protein by a sandwich ELISA specific for human granzyme B (Ucytech, Netherlands).

`C[N+](C)(C)CCOC(N)=O` [Carbachol, carbachol]: at CHRM2 [1], the signal to background was 8-10. For the same compound, the “Absorbance at maximal dilution of ELISA tested” value at CHRM2 [2] (100.000 cells, dilution 2250, after subtraction of 0.2 blank) was 0.6. Moreover, the “Sensitivity (minimal amount of cells needed)” value at CHRM2 [2] (granzyme B ELISA) is recorded as under 150 cells.
